Test results taken from patent publication US4100346A, “Certain 7(o-amino-methyl- or methylaminomethylphenyl- or cyclohexadienyl- or thienylacetamide)-3[1-carboxymethyl-(or ethyl- or propyl-)-tetrazol-5-ylthiomethyl]-3-cephem-4-carboxylic acids” (Bristol-Myers Company, priority 1976, dated 1978).
In brackets after ≈: the same amount, converted by molar mass. Like-named read-outs stand apart in the source and are kept apart here.

Key:
[1] = test system: E. coli; assay: M.I.C. by Tube Dilution in Nutrient Broth (Examples 1 and 2); type: cell-based; settings: Escherichia coli, E. coli A9675 (10^-4)
Source text: (§1) | **Dilution of overnight broth culture

[2] = test system: Pr. mirabilis; assay: as above; type: cell-based; settings: Proteus mirabilis; Pr. mirabilis A9900 (10^-4)
Source text: as §1

[3] = test system: Pr. morganii; assay: as above; type: cell-based; settings: Morganella morganii; Pr. morganii A15153 (10^-4)
Source text: as §1

[4] = test system: Ps. aeruginosa; assay: as above; type: cell-based; settings: Pseudomonas aeruginosa
Source text: as §1

[5] = test system: S. aureus; assay: as above; type: cell-based; settings: Staphylococcus aureus
Source text: as §1

[6] = test system: Sal. enteritidis; assay: as above; type: cell-based; settings: Salmonella enterica; Sal. enteritidis A9531 (10 ^4)
Source text: as §1

[7] = test system: Ser. marcescens; assay: as above; type: cell-based; settings: Serratia marcescens; Ser. marcescens A20019 (10^-4)
Source text: as §1

[8] = test system: Citrobacter sp.; assay: Intramuscular treatment of systemically infected mice; type: in vivo; settings: im, Citrobacter sp. strain 1, challenge 5×10^6 -2×10^7, treated 1 and 3.5 hours after infection, read-out: PD50 /treatment
Source text: (§2) Treatment of Systemically Infected Mice. The procedures were identical with those published previously [Leitner et al., BL-S640, a Cephalosporin With a Broad Spectrum of Antibacterial Activity: Bioavailability and Therapeutic Properties in Rodents, Antimicrob. Agents Chemother. 7:306-310, (1975)], except that:
(§3) (a) the hog gastric mucin used in infections with Staphylococcus aureus No. 2 was purchased from American Laboratories, Inc., Omaha, Neb. (lot No. 154163) and b) that the medium used to suspend all other organisms contained 3% (rather than 4%) hog gastric mucin (type 1701W, Wilson Laboratories, Inc., Park Forest South, Ill.).
(§4) *Animals were treated twice; 1 and 3.5 hours after infection.

[9] = test system: Escherichia coli; assay: as above; type: in vivo; settings: im, 3.5 h, read-out: PD50 /treatment
Source text: as §2, §3, §4

[10] = test system: Klebsiella pneumoniae; assay: as above; type: in vivo; settings: im, 3.5 h, read-out: PD50 /treatment
Source text: as §2, §3, §4

[11] = test system: Proteus mirabilis; assay: as above; type: in vivo; settings: im, 3.5 h, read-out: PD50 /treatment
Source text: as §2, §3, §4

[12] = test system: Proteus morganii; assay: as above; type: in vivo; settings: Morganella morganii, im, 3.5 h, read-out: PD50 /treatment
Source text: as §2, §3, §4

[13] = test system: Proteus rettgeri; assay: as above; type: in vivo; settings: Providencia rettgeri, im, Proteus rettgeri strain 4, challenge 2×10^6 -3×10^6, treated 1 and 3.5 hours after infection, read-out: PD50 /treatment
Source text: as §2, §3, §4

[14] = test system: Proteus vulgaris; assay: as above; type: in vivo; settings: im, 3.5 h, read-out: PD50 /treatment
Source text: as §2, §3, §4

[15] = test system: Providencia stuartii; assay: as above; type: in vivo; settings: im, 3.5 h, read-out: PD50 /treatment
Source text: as §2, §3, §4

[16] = test system: Staphylococcus aureus; assay: as above; type: in vivo; settings: im, read-out: PD50 /treatment
Source text: as §2, §3
(§5) *Animals infected with penicillinase-producing staphyloccal strains (No.
(§6) and 3) were treated 0 and 2 hours after infection; the others were treate
(§7) 1 and 3.5 hours after infection.

[17] = test system: Streptococcus pneumoniae; assay: as above; type: in vivo; settings: im, 3.5 h, read-out: PD50 /treatment
Source text: as §2, §3, §5, §6, §7

[18] = test system: Streptococcus pyogenes; assay: as above; type: in vivo; settings: im, 3.5 h, read-out: PD50 /treatment
Source text: as §2, §3, §5, §6, §7

[19] = test system: Edwardsiella tarda; assay: Growth inhibitory activity, antibiotic dilution technique; settings: read-out: Minimum inhibitory concentration
[20] = test system: Alcaligenes sp.; assay: as above
[21] = test system: Providencia stuartii; assay: as above; settings: Providencia stuartii strains; at a concentration of 16 mcg./ml.
[22] = test system: S. pneumoniae; assay: as above; settings: Streptococcus pneumoniae, read-out: concentration inhibiting all strains
[23] = test system: Enterobacter cloacae; assay: Effect of inoculum size on susceptibility of Enterobacteriaceae

NCc1ccccc1CC(=O)N[C@@H]1C(=O)N2C(C(=O)O)=C(CSc3nnnn3CC(=O)O)CS[C@H]12 [Example 1]
MIC [1]: 16 µg/mL (≈ 30.8 µM)
MIC [2]: 0.13 µg/mL (≈ 0.25 µM)
MIC [3]: 32 µg/mL (≈ 61.6 µM)
MIC [4]: > 125 µg/mL
MIC ([5]; S. aureus BX1633 A9606 (10^-2)): 2 µg/mL (≈ 3.85 µM)
MIC ([5]; S. aureus BX1633 A9606 (10^-3)): 1 µg/mL (≈ 1.92 µM)
MIC ([5]; S. aureus Meth-Res A15097 (10^-3)): 4 µg/mL (≈ 7.7 µM)
MIC ([5]; S. aureus Smith A9537 (10^-4)): 1 µg/mL (≈ 1.92 µM)
MIC ([5]; S. aureus-50% serum A9537 (10^-4)): 4 µg/mL (≈ 7.7 µM)
MIC [6]: 0.06 µg/mL (≈ 0.115 µM)
MIC [7]: 125 µg/mL (≈ 241 µM)
ED50 [8]: 3.5 mg/kg
ED50 ([9]; Escherichia coli strain 1, challenge 2×10^5 organisms, treated 1 and 3.5 hours after infection): 0.37 mg/kg
ED50 ([9]; Escherichia coli strain 8, challenge 6×10^5 -4×10^6, treated 1 and 3.5 hours after infection): 1.5 mg/kg
ED50 ([9]; Escherichia coli strain 9, challenge 7×10^3 -2×10^4, treated 1 and 3.5 hours after infection): 2.2 mg/kg
ED50 ([10]; Klebsiella pneumoniae strain 1, challenge 4×10^4 -5×10^4, treated 1 and 3.5 hours after infection): 2 mg/kg
ED50 ([10]; Klebsiella pneumoniae strain 7, challenge 9×10^2 -1×10^3, treated 1 and 3.5 hours after infection): 22 mg/kg
ED50 ([11]; Proteus mirabilis strain 1, challenge 7×10^6 -9×10^6, treated 1 and 3.5 hours after infection): 1.4 mg/kg
ED50 ([11]; Proteus mirabilis strain 5, challenge 9×10^5 -3×10^6, treated 1 and 3.5 hours after infection): 0.62 mg/kg
ED50 ([11]; Proteus mirabilis strain 8, challenge 6×10^5 -4×10^6, treated 1 and 3.5 hours after infection): 0.59 mg/kg
ED50 ([12]; Proteus morganii strain 1, challenge 1×10^5 -4×10^5, treated 1 and 3.5 hours after infection): 19 mg/kg
ED50 ([12]; Proteus morganii strain 2, challenge 2×10^6 -3×10^6, treated 1 and 3.5 hours after infection): 39 mg/kg
ED50 [13]: 2.4 mg/kg
ED50 ([14]; Proteus vulgaris strain 1, challenge 1×10^6 -2×10^6, treated 1 and 3.5 hours after infection): 1.8 mg/kg
ED50 ([14]; Proteus vulgaris strain 3, challenge 4×10^5, treated 1 and 3.5 hours after infection): 2.5 mg/kg
ED50 ([15]; Providencia stuartii strain 2, challenge 1×10^6 ×5×10^6, treated 1 and 3.5 hours after infection): 5.9 mg/kg
ED50 ([15]; Providencia stuartii strain 3, challenge 2×10^7, treated 1 and 3.5 hours after infection): 8 mg/kg
ED50 ([16]; 3.5 h, Staphylococcus aureus strain 1, challenge 2 × 10^5 - 3 × 10^5, treated 1 and 3.5 hours after infection): 0.3 mg/kg
ED50 ([16]; Staphylococcus aureus strain 2 (penicillinase-producing), challenge 1 × 10^9, treated 0 and 2 hours after infection): 5.4 mg/kg
ED50 ([16]; Staphylococcus aureus strain 3 (penicillinase-producing), challenge 5 × 10^8 - 7 × 10^9, treated 0 and 2 hours after infection): 10 mg/kg
ED50 ([17]; Streptococcus pneumoniae strain 1, challenge 2 × 10^3 - 9 × 10^3, treated 1 and 3.5 hours after infection): 0.52 mg/kg
ED50 ([17]; Streptococcus pneumoniae strain 2, challenge 1 × 10^4 - 3 × 10^4, treated 1 and 3.5 hours after infection): 1.6 mg/kg
ED50 ([18]; Streptococcus pyogenes strain 1, challenge 2 × 10^3 -6 × 10^3, treated 1 and 3.5 hours after infection): 2.9 mg/kg
ED50 ([18]; Streptococcus pyogenes strain 2, challenge 1 × 10^4 - 5 × 10^4, treated 1 and 3.5 hours after infection): 0.93 mg/kg
MIC [19]: 0.13 µg/mL (≈ 0.25 µM)
MIC ([20]; read-out: Minimum inhibitory concentration, Alcaligenes sp., 2 strains, geometric mean when applicable): 63 µg/mL (≈ 121 µM)
MIC ([20]; read-out: Minimum inhibitory concentration, Alcaligenes sp., 4 strains, geometric mean when applicable): > 125 µg/mL
MIC ([20]; read-out: Minimum inhibitory concentration, Alcaligenes sp., 5 strains, geometric mean when applicable): 2.6 µg/mL (≈ 5 µM)
percent of strains inhibited [21]: Ninety-eight
MIC [22]: 0.25 µg/mL (≈ 0.481 µM)
MIC ([23]; read-out: Minimum Inhibitory Concentration, Enterobacter cloacae strain 1, A, Inoculum of 10^2 organisms): 1 µg/mL (≈ 1.92 µM)
MIC ([23]; read-out: Minimum Inhibitory Concentration, Enterobacter cloacae strain 1, B, Inoculum of 10^6 organisms): > 250 µg/mL
MIC ([23]; read-out: Minimum Inhibitory Concentration, Enterobacter cloacae strain 2, A, Inoculum of 10^2 organisms): 1 µg/mL (≈ 1.92 µM)
MIC ([23]; read-out: Minimum Inhibitory Concentration, Enterobacter cloacae strain 2, B, Inoculum of 10^6 organisms): > 250 µg/mL
MIC ([23]; read-out: Minimum Inhibitory Concentration, Enterobacter cloacae strain 3, A, Inoculum of 10^2 organisms): 2 µg/mL (≈ 3.85 µM)
MIC ([23]; read-out: Minimum Inhibitory Concentration, Enterobacter cloacae strain 3, B, Inoculum of 10^6 organisms): > 250 µg/mL
MIC ([23]; read-out: Minimum Inhibitory Concentration, Enterobacter cloacae strain 4, A, Inoculum of 10^2 organisms): 2 µg/mL (≈ 3.85 µM)
MIC ([23]; read-out: Minimum Inhibitory Concentration, Enterobacter cloacae strain 4, B, Inoculum of 10^6 organisms): > 250 µg/mL
MIC ([23]; read-out: Minimum Inhibitory Concentration, Enterobacter cloacae strain 5, A, Inoculum of 10^2 organisms): 8 µg/mL (≈ 15.4 µM)
MIC ([23]; read-out: Minimum Inhibitory Concentration, Enterobacter cloacae strain 5, B, Inoculum of 10^6 organisms): 250 µg/mL (≈ 481 µM)
